The source of these data is ChEMBL document CHEMBL1158145, “Xenofuranones A and B: phenylpyruvate dimers from Xenorhabdus szentirmaii” (J Nat Prod, 2006).

Values after ≈ are worked out from the molar mass of the structure shown.

The test system of this experiment is L929. Put plainly: Cytotoxicity against mouse L929 cells. Format: cell-based.

In general, IC50 refers to the concentration that gives 50% inhibition. Higher therefore signals lower potency. Regarding `COC1=C(c2ccccc2)C(Cc2ccccc2)OC1=O` (stereo unspecified) [XENOFURANONE A], the IC50 was 18 µg/mL (≈ 64.2 µM).
